Source: ChEMBL document CHEMBL1201862, “PubChem BioAssay data set” (2004)
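Step 1: Grow cells in 96-well plates. Step 2: Expose to compound for 48 hours at 5 concentrations. Step 3: Interpolate endpoints linearly; if unreached, use highest concentration. The concentration for 50% growth inhibition is given as GI50.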 Activity calls are given as the source filed them. Cut-off read from the data, not from the text of the source: active = GI50 up to about 1.1 µM and inactive = higher.

Columns and labels:
Assay in all cases: NCI tumour cell line growth inhibition, 48 h
[1] = system: SK-MEL-28
[2] = system: HOP-62
[3] = system: LOX IMVI
[4] = system: TK-10
[5] = system: HOP-92
[6] = system: MCF7
[7] = system: HCT-15
[8] = system: SK-MEL-2
[9] = system: A549
[10] = system: NCI/ADR-RES
[11] = system: KM12
[12] = system: NCI-H522
[13] = system: HT-29
[14] = system: Hs-578T
[15] = system: OVCAR-5
[16] = system: PC-3
[17] = system: SF-268
[18] = system: OVCAR-8
[19] = system: MDA-MB-231
[20] = system: OVCAR-3
[21] = system: UO-31
[22] = system: UACC-257
[23] = system: HL-60
[24] = system: CAKI-1
[25] = system: MDA-MB-435
[26] = system: SR
[27] = system: RPMI-8226
[28] = system: MDA-N
[29] = system: Malme-3M
[30] = system: CCRF-CEM
[31] = system: NCI-H23
[32] = system: NCI-H460
[33] = system: SW-620
[34] = system: MOLT-4
[35] = system: UACC-62
[36] = system: IGROV-1
[37] = system: HCT-116
[38] = system: DU-145
[39] = system: RXF 393
[40] = system: OVCAR-4
[41] = system: SF-295
[42] = system: K562
[43] = system: EKVX
[44] = system: SNB-19
[45] = system: M14
[46] = system: SK-OV-3
[47] = system: T47D
[48] = system: HCC 2998
[49] = system: 786-0
[50] = system: BT-549
[51] = system: COLO 205
[52] = system: ACHN
[53] = system: SK-MEL-5
[54] = system: U-251
[55] = system: SN12C
[56] = system: SF-539
[57] = system: NCI-H226
[58] = system: SNB-75
[59] = system: A498

Structure (SMILES): O=c1cc(-c2ccccc2)[nH]c2ccc(N3CCCCC3)cc12
- GI50 [1]: 0.0267 µM (active)
- GI50 [2]: 0.0305 µM (active)
- GI50 [3]: 0.0465 µM (active)
- GI50 [4]: 0.998 µM (active)
- GI50 [5]: < 0.01 µM (active)
- GI50 [6]: 0.0428 µM (active)
- GI50 [7]: 0.0329 µM
- GI50 [8]: 0.0476 µM (active)
- GI50 [9]: 0.0488 µM (active)
- GI50 [10]: 0.0204 µM (active)
- GI50 [11]: 0.0142 µM (active)
- GI50 [12]: 0.0133 µM (active)
- GI50 [13]: 0.0566 µM (active)
- GI50 [14]: < 0.0152 µM (active)
- GI50 [15]: 4.35 µM (inactive)
- GI50 [16]: 0.0297 µM (active)
- GI50 [17]: 0.228 µM (active)
- GI50 [18]: 0.0462 µM (active)
- GI50 [19]: 0.0501 µM (active)
- GI50 [20]: 0.0166 µM (active)
- GI50 [21]: > 10 µM (inactive)
- GI50 [22]: 42.6 µM (inactive)
- GI50 [23]: < 0.0126 µM (active)
- GI50 [24]: < 0.0221 µM (active)
- GI50 [25]: < 0.01 µM (active)
- GI50 [26]: 0.0172 µM (active)
- GI50 [27]: 0.0333 µM (active)
- GI50 [28]: < 0.01 µM (active)
- GI50 [29]: > 100 µM (inactive)
- GI50 [30]: < 0.0161 µM (active)
- GI50 [31]: 0.023 µM (active)
- GI50 [32]: 0.0306 µM (active)
- GI50 [33]: 0.0468 µM (active)
- GI50 [34]: 0.0605 µM (active)
- GI50 [35]: < 0.01 µM (active)
- GI50 [36]: 0.0506 µM (active)
- GI50 [37]: < 0.0184 µM (active)
- GI50 [38]: 0.0468 µM (active)
- GI50 [39]: < 0.0191 µM (active)
- GI50 [40]: > 100 µM (inactive)
- GI50 [41]: < 0.0117 µM (active)
- GI50 [42]: < 0.0129 µM (active)
- GI50 [43]: > 100 µM (inactive)
- GI50 [44]: 0.0347 µM (active)
- GI50 [45]: 0.0166 µM (active)
- GI50 [46]: 0.0368 µM (active)
- GI50 [47]: > 100 µM (inactive)
- GI50 [48]: < 0.0224 µM (active)
- GI50 [49]: 0.0364 µM (active)
- GI50 [50]: 40.9 µM (inactive)
- GI50 [51]: 0.017 µM (active)
- GI50 [52]: 0.048 µM (active)
- GI50 [53]: < 0.0153 µM (active)
- GI50 [54]: 0.0171 µM (active)
- GI50 [55]: 0.0373 µM (active)
- GI50 [56]: < 0.0159 µM (active)
- GI50 [57]: 0.0193 µM (active)

Structure (SMILES): CC1=NN(C(=O)CC(=O)Nc2cccc(Cl)c2)C(=O)C1/N=N\c1ccc(S(=O)(=O)c2ccc(/N=N/C3C(=O)N(C(=O)CC(=O)Nc4cccc(Cl)c4)N=C3C)cc2)cc1 (stereo not given)
- GI50 [1]: > 100 µM (inactive)
- GI50 [2]: > 100 µM (inactive)
- GI50 [3]: > 100 µM (inactive)
- GI50 [4]: > 100 µM (inactive)
- GI50 [5]: > 100 µM (inactive)
- GI50 [6]: > 100 µM (inactive)
- GI50 [7]: > 100 µM
- GI50 [8]: > 100 µM (inactive)
- GI50 [9]: > 100 µM (inactive)
- GI50 [10]: > 100 µM (inactive)
- GI50 [11]: > 100 µM (inactive)
- GI50 [12]: > 100 µM (inactive)
- GI50 [13]: > 100 µM (inactive)
- GI50 [14]: > 100 µM (inactive)
- GI50 [15]: > 100 µM (inactive)
- GI50 [16]: > 100 µM (inactive)
- GI50 [17]: > 100 µM (inactive)
- GI50 [18]: > 100 µM (inactive)
- GI50 [19]: 16.1 µM (inactive)
- GI50 [20]: > 100 µM (inactive)
- GI50 [21]: > 100 µM (inactive)
- GI50 [22]: > 100 µM (inactive)
- GI50 [23]: > 100 µM (inactive)
- GI50 [24]: > 100 µM (inactive)
- GI50 [25]: > 100 µM (inactive)
- GI50 [26]: > 100 µM (inactive)
- GI50 [27]: > 100 µM (inactive)
- GI50 [28]: > 100 µM (inactive)
- GI50 [58]: > 100 µM (inactive)
- GI50 [29]: > 100 µM (inactive)
- GI50 [30]: > 100 µM (inactive)
- GI50 [31]: > 100 µM (inactive)
- GI50 [32]: > 100 µM (inactive)
- GI50 [33]: > 100 µM (inactive)
- GI50 [34]: > 100 µM (inactive)
- GI50 [35]: > 100 µM (inactive)
- GI50 [36]: > 100 µM (inactive)
- GI50 [37]: > 100 µM (inactive)
- GI50 [38]: 83.8 µM (inactive)
- GI50 [39]: > 100 µM (inactive)
- GI50 [40]: > 100 µM (inactive)
- GI50 [41]: > 100 µM (inactive)
- GI50 [42]: > 100 µM (inactive)
- GI50 [43]: > 100 µM (inactive)
- GI50 [44]: > 100 µM (inactive)
- GI50 [45]: > 100 µM (inactive)
- GI50 [46]: > 100 µM (inactive)
- GI50 [47]: > 100 µM (inactive)
- GI50 [48]: > 100 µM (inactive)
- GI50 [49]: > 100 µM (inactive)
- GI50 [50]: > 100 µM (inactive)
- GI50 [51]: > 100 µM (inactive)
- GI50 [52]: > 100 µM (inactive)
- GI50 [53]: 40.8 µM (inactive)
- GI50 [54]: 29.4 µM (inactive)
- GI50 [55]: > 100 µM (inactive)
- GI50 [56]: 22.6 µM (inactive)
- GI50 [57]: > 100 µM (inactive)

Structure (SMILES): COc1cc(OC)cc(OCc2ccc3nc(-c4ccccc4)c(Cl)nc3c2)c1
- GI50 [1]: > 100 µM (inactive)
- GI50 [2]: 16.7 µM (inactive)
- GI50 [3]: 43.1 µM (inactive)
- GI50 [4]: 20.2 µM (inactive)
- GI50 [5]: 18.8 µM (inactive)
- GI50 [6]: 58.6 µM (inactive)
- GI50 [7]: > 100 µM
- GI50 [8]: 35.6 µM (inactive)
- GI50 [9]: 49.9 µM (inactive)
- GI50 [10]: 25 µM (inactive)
- GI50 [11]: 58.3 µM (inactive)
- GI50 [12]: 5.05 µM (inactive)
- GI50 [13]: 48.5 µM (inactive)
- GI50 [14]: 27.3 µM (inactive)
- GI50 [15]: 49 µM (inactive)
- GI50 [16]: 37.6 µM (inactive)
- GI50 [59]: 35 µM (inactive)
- GI50 [17]: 30.5 µM (inactive)
- GI50 [18]: 25.8 µM (inactive)
- GI50 [19]: 7.16 µM (inactive)
- GI50 [20]: > 100 µM (inactive)
- GI50 [21]: 66.2 µM (inactive)
- GI50 [22]: > 100 µM (inactive)
- GI50 [23]: 54.6 µM (inactive)
- GI50 [24]: 11.5 µM (inactive)
- GI50 [25]: 84.5 µM (inactive)
- GI50 [26]: 19.7 µM (inactive)
- GI50 [27]: 33.4 µM (inactive)
- GI50 [28]: 44.1 µM (inactive)
- GI50 [58]: 15.8 µM (inactive)
- GI50 [29]: 11 µM (inactive)
- GI50 [30]: > 100 µM (inactive)
- GI50 [31]: 17.3 µM (inactive)
- GI50 [32]: 37 µM (inactive)
- GI50 [33]: 59.8 µM (inactive)
- GI50 [34]: 25.9 µM (inactive)
- GI50 [35]: 32.4 µM (inactive)
- GI50 [36]: 21.1 µM (inactive)
- GI50 [37]: 29 µM (inactive)
- GI50 [38]: 52.7 µM (inactive)
- GI50 [40]: 24.1 µM (inactive)
- GI50 [41]: 22.5 µM (inactive)
- GI50 [43]: 27 µM (inactive)
- GI50 [44]: 25.9 µM (inactive)
- GI50 [45]: > 100 µM (inactive)
- GI50 [47]: 24.7 µM (inactive)
- GI50 [48]: 32.7 µM (inactive)
- GI50 [49]: 9.89 µM (inactive)
- GI50 [50]: 31.3 µM (inactive)
- GI50 [51]: 25.2 µM (inactive)
- GI50 [52]: 17.7 µM (inactive)
- GI50 [53]: 14.5 µM (inactive)
- GI50 [54]: 20.9 µM (inactive)
- GI50 [55]: 40.7 µM (inactive)
- GI50 [56]: 18.4 µM (inactive)
